Experimental data from patent US20140349955A1, “USE OF FLUORINE-CONTAINING WATER SOLUBLE PLATINUM COMPLEX IN PREPARING DRUGS FOR PREVENTION AND TREATMENT OF CANCERS” (GUDUI BIOPHARMA TECHNOLOGY INC., priority 2011, published 2014).

Legend:
[1] = test system: A549; assay: MTS cytotoxicity test, A549; type: cell-based; settings: 96 h, read-out: IC50 value in human tumor cells
Method: (§1) Containing 10% bovine fetal serum, 1 mM of sodium pyruvate, 2 mM of L-glutamine, 50 U/mL of penicillin, 50 μg/mL of streptomycin
(§2) Human tumor cells: dul45-human prostate cancer; MCF-7-human breast cancer; SK0V3-human ovarian carcinoma, HT-29-human colon cancer; A549-human non-small cell lung cancer (adenocarcinoma), H460-human non-small cell lung cancer (large cell carcinoma), and animal tumor cells: L1210-mice leukemia cells used in the following activity test experiments were all purchased from Shanghai An Yan Commercial Trade Co., Ltd.
(§3) MTS test method was used in cytotoxicity assay. The tumor cells of logarithmic phase were collected, and then the concentration of cell suspension was adjusted, 100 μL of the cell suspension was added to each well, the cells were placed at 1000-10000 cells/well (edge well filled with sterile PBS). Cells were incubated at 37° C. with 5% CO2 to make cell monolayer overspread the bottom of each well (96-well flat-bottomed microplate). 100 μL of different concentrations of the test compounds was added to each well. Each condition was measured in five replicates. The microplate was incubated at 37° C. with 5% CO2 for 96 h and checked with inverted microscope. MTS working reagent: To 2 mL of MTS (2 mg/mL, prepared by DPBS) was added 100 μL of PMS (1 mg/mL, prepared by DPBS). The cell culture medium was discarded after centrifugation, the cell culture plate was carefully washed 2-3 times with PBS. Before detecting the absorbance value (OD), to each sample containing well was added 100 μL of cell culture medium, then 20 μL of MTS working reagent was added. After incubation at 37° C. with 5% CO2 for 2 h, the OD (optical density) value was detected at 490 nm.
(§4) Control group: the conditions are the same as the above without adding the active ingredient of antitumor agents, and the OD value was detected at 490 nm on the end of the experiment.
(§5) The cell inhibiting rate of the drugs to tumor cell growth was calculated according to the following formula:
(§6) 1) Cell viability (%)=OD of treated group/OD of control group×100%
(§7) 2) The cell viabilities under the different drug concentrations were determined, and then plotted against drug concentration. The IC50 value is the corresponding concentration in the obtained curve when the cell viability was 50%.

[2] = test system: DU145; assay: MTS cytotoxicity test, DU145; type: cell-based; settings: 96 h, read-out: IC50 value in human tumor cells
Method: as §1, §2, §3, §4, §5, §6, §7

[3] = test system: HT29; assay: MTS cytotoxicity test, HT29; type: cell-based; settings: 96 h, read-out: IC50 value in human tumor cells
Method: as §1, §2, §3, §4, §5, §6, §7

[4] = test system: MCF7; assay: MTS cytotoxicity test, MCF7; type: cell-based; settings: 96 h, read-out: IC50 value in human tumor cells
Method: as §1, §2, §3, §4, §5, §6, §7

[5] = test system: SKOV3; assay: MTS cytotoxicity test, SKOV3; type: cell-based; settings: 96 h, read-out: IC50 value in human tumor cells
Method: as §1, §2, §3, §4, §5, §6, §7

[6] = test system: H460; assay: MTS cytotoxicity test, H460; type: cell-based; settings: 96 h, read-out: IC50 value in human tumor cells
Method: as §1, §2, §3, §4, §5, §6, §7

[7] = test system: A549; assay: Synergistic cytotoxicity test (MTS), A549; type: cell-based, human; settings: 96 h
Method: (§8) Containing 10% bovine fetal serum, 1 mM of sodium pyruvate, 2 mM of L-glutamine, 50 U/mL of penicillin, 50 μg/ mL of streptomycin.
as §2, with “du145-human” for “dul45-human”
as §3, with “certain concentration solution of a mixture” for “different concentrations”, “fluorine-containing water-soluble platinum complex with other antitumor agents” for “test compounds”
(§9) Each of above experiment was repeated five times, and the cell viability was calculated according to the mean OD values.
(§10) Cell Viability (%)=(treated group OD value/control group OD value)×100
(§11) Control group: the conditions are the same as the above without adding the tested drug mixture (100 μL of culture medium was added in stead), and finally the absorbance was measured at 490 nm to obtain the OD value of the tumor cells.
(§12) Drug Group-1: only the fluorine-containing water-soluble platinum complex was added under the above conditions to obtain cell viability of tumor cells.
(§13) Drug Group-2: only the other chemotherapeutic drug (active ingredient) was added under the above conditions to obtain cell viability of tumor cells.
(§14) Drug Combination Group: the fluorine-containing water-soluble platinum complex and other chemotherapeutic drugs were added simultaneously under the above conditions to obtain cell viability of tumor cell. (2) Evaluation Method:
(§15) When the fluorine-containing water-soluble platinum complexes used in combination with other chemotherapy drugs, the inhibition effect on cancer cell proliferation is enhanced or synergistic, and the effect was calculated using the following formula:
(§16) Combination Effect (%)={[(A1-X)+(A2-X)]/(A1-A2)|}×100
(§17) wherein, A1 is the cell viability of drug group-1, A2 is the cell viability of drug group-2, X is the cell viability of drug combination group, (A1-A2)| is the absolute value of the cell viability difference between the two groups.
(§18) Calculated according to the above formula, when the results of [Combination Effect (%)]>+100%, that means the effect of inhibition on cell proliferation is enhanced or synergistic (3) Experimental Result: […]

[8] = test system: MCF7; assay: Synergistic cytotoxicity test (MTS), MCF7; type: cell-based, human; settings: 96 h
Method: as §8
as §2, with “du145-human” for “dul45-human”
as §3, with “certain concentration solution of a mixture” for “different concentrations”, “fluorine-containing water-soluble platinum complex with other antitumor agents” for “test compounds”
as §9, §10, §11, §12, §13, §14, §15, §16, §17, §18

[9] = test system: HT29; assay: Synergistic cytotoxicity test (MTS), HT29; type: cell-based, human; settings: 96 h
Method: as §8
as §2, with “du145-human” for “dul45-human”
as §3, with “certain concentration solution of a mixture” for “different concentrations”, “fluorine-containing water-soluble platinum complex with other antitumor agents” for “test compounds”
as §9, §10, §11, §12, §13, §14, §15, §16, §17, §18

[10] = test system: DU145; assay: Synergistic cytotoxicity test (MTS), DU145; type: cell-based, human; settings: 96 h
Method: as §8
as §2, with “du145-human” for “dul45-human”
as §3, with “certain concentration solution of a mixture” for “different concentrations”, “fluorine-containing water-soluble platinum complex with other antitumor agents” for “test compounds”
as §9, §10, §11, §12, §13, §14, §15, §16, §17, §18

[11] = test system: SK0V3; assay: Synergistic cytotoxicity test (MTS), SKOV3; type: cell-based, human; settings: 96 h
Method: as §8
as §2, with “du145-human” for “dul45-human”
as §3, with “certain concentration solution of a mixture” for “different concentrations”, “fluorine-containing water-soluble platinum complex with other antitumor agents” for “test compounds”
as §9, §10, §11, §12, §13, §14, §15, §16, §17, §18

[12] = test system: H460; assay: Synergistic cytotoxicity test (MTS), H460; type: cell-based, human; settings: 96 h
Method: as §8
as §2, with “du145-human” for “dul45-human”
as §3, with “certain concentration solution of a mixture” for “different concentrations”, “fluorine-containing water-soluble platinum complex with other antitumor agents” for “test compounds”
as §9, §10, §11, §12, §13, §14, §15, §16, §17, §18

[13] = other chemotherapy drug (at its listed dosage) combined with Complex 2 (dosage: 1 μM)
[14] = other chemotherapy drug (at its listed dosage) combined with Complex 3 (dosage: 1 μM)
[15] = other chemotherapy drug (at its listed dosage) combined with Complex 5 (dosage: 1 μM)
[16] = other chemotherapy drug (at its listed dosage) combined with Complex 6 (dosage: 1 μM)
[17] = other chemotherapy drug (at its listed dosage) combined with Complex 2 (dosage: 1 μM), SLOV3
[18] = other chemotherapy drug (at its listed dosage) combined with Complex 3 (dosage: 1 μM), SlOV3
[19] = other chemotherapy drug (at its listed dosage) combined with Complex 5 (dosage: 1 μM), SLOV3
[20] = other chemotherapy drug (at its listed dosage) combined with Complex 6 (dosage: 1 μM), SLOV3

SMILES	IC50 [1]	IC50 [2]	IC50 [3]	IC50 [4]	IC50 [5]	IC50 [6]	the effect of drug combination (Combination Effect) [7, 13]	the effect of drug combination (Combination Effect) [7, 14]	the effect of drug combination (Combination Effect) [8, 13]	the effect of drug combination (Combination Effect) [8, 14]	the effect of drug combination (Combination Effect) [8, 15]	the effect of drug combination (Combination Effect) [8, 16]	the effect of drug combination (Combination Effect) [9, 13]	the effect of drug combination (Combination Effect) [9, 14]	the effect of drug combination (Combination Effect) [9, 15]	the effect of drug combination (Combination Effect) [9, 16]	the effect of drug combination (Combination Effect) [10, 13]	the effect of drug combination (Combination Effect) [10, 14]	the effect of drug combination (Combination Effect) [10, 15]	the effect of drug combination (Combination Effect) [10, 16]	other results
O=C1[O][Pt]2([NH]C3CCCCC3[NH]2)[O]C(=O)C1(F)CCOC1OC(CO)C(O)C(O)C1O (stereo not shown) [Complex 5]	653 nM	2600 nM	2160 nM	411 nM	2220 nM	10200 nM	–	–	–	–	–	–	–	–	–	–	–	–	–	–	–
CCc1c2c(nc3ccc(OC(=O)N4CCC(N5CCCCC5)CC4)cc13)-c1cc3c(c(=O)n1C2)COC(=O)[C@]3(O)CC [Irinotecan]	–	–	–	–	–	–	⊚ (⊚ represents the effect of drug combination > 300%)	⊚ (⊚ represents the effect of drug combination > 300%)	○ (○ represents: 100% < the effect of drug combination < 300%)	○ (○ represents: 100% < the effect of drug combination < 300%)	○ (○ represents: 100% < the effect of drug combination < 300%)	○ (○ represents: 100% < the effect of drug combination < 300%)	⊚ (⊚ represents the effect of drug combination > 300%)	⊚ (⊚ represents the effect of drug combination > 300%)	⊚ (⊚ represents the effect of drug combination > 300%)	⊚ (⊚ represents the effect of drug combination > 300%)	○ (○ represents: 100% < the effect of drug combination < 300%)	○ (○ represents: 100% < the effect of drug combination < 300%)	○ (○ represents: 100% < the effect of drug combination < 300%)	○ (○ represents: 100% < the effect of drug combination < 300%)	the effect of drug combination (Combination Effect) [11, 17]: ⊚ (⊚ represents the effect of drug combination > 300%); the effect of drug combination (Combination Effect) [11, 18]: ⊚ (⊚ represents the effect of drug combination > 300%); the effect of drug combination (Combination Effect) [11, 19]: ⊚ (⊚ represents the effect of drug combination > 300%); the effect of drug combination (Combination Effect) [11, 20]: ⊚ (⊚ represents the effect of drug combination > 300%); the effect of drug combination (Combination Effect) [12, 15]: ⊚ (⊚ represents the effect of drug combination > 300%); the effect of drug combination (Combination Effect) [12, 16]: ⊚ (⊚ represents the effect of drug combination > 300%)
O=C1[O][Pt]2([NH][C@@H]3CCCC[C@H]3[NH]2)[O]C(=O)C1(F)CCOC1O[C@H](CO)[C@@H](O)[C@H](O)[C@H]1O (stereo partly drawn) [Complex 2, cis-[trans-(1R, 2R)-diaminocyclohexane] Pt (II) (1—O—D-glucoside-propane-3-fluoro-3,3-dicarb oxylate)]	675 nM	4850 nM	1550 nM	656 nM	10000 nM	9860 nM	–	–	–	–	–	–	–	–	–	–	–	–	–	–	–
CCCCCOC(=O)Nc1nc(=O)n([C@@H]2O[C@H](C)[C@@H](O)[C@H]2O)cc1F [Capecitabine]	–	–	–	–	–	–	○ (○ represents: 100% < the effect of drug combination < 300%)	○ (○ represents: 100% < the effect of drug combination < 300%)	⊚ (⊚ represents the effect of drug combination > 300%)	⊚ (⊚ represents the effect of drug combination > 300%)	⊚ (⊚ represents the effect of drug combination > 300%)	⊚ (⊚ represents the effect of drug combination > 300%)	⊚ (⊚ represents the effect of drug combination > 300%)	○ (○ represents: 100% < the effect of drug combination < 300%)	○ (○ represents: 100% < the effect of drug combination < 300%)	○ (○ represents: 100% < the effect of drug combination < 300%)	○ (○ represents: 100% < the effect of drug combination < 300%)	○ (○ represents: 100% < the effect of drug combination < 300%)	○ (○ represents: 100% < the effect of drug combination < 300%)	○ (○ represents: 100% < the effect of drug combination < 300%)	the effect of drug combination (Combination Effect) [11, 17]: ○ (○ represents: 100% < the effect of drug combination < 300%); the effect of drug combination (Combination Effect) [11, 18]: ○ (○ represents: 100% < the effect of drug combination < 300%); the effect of drug combination (Combination Effect) [11, 19]: ○ (○ represents: 100% < the effect of drug combination < 300%); the effect of drug combination (Combination Effect) [11, 20]: ○ (○ represents: 100% < the effect of drug combination < 300%); the effect of drug combination (Combination Effect) [12, 15]: ○ (○ represents: 100% < the effect of drug combination < 300%); the effect of drug combination (Combination Effect) [12, 16]: ○ (○ represents: 100% < the effect of drug combination < 300%)
